The subject of data set [1] is Human immunodeficiency virus 1. Kind of data set: Antiviral activity against HIV 1 infected in human PBMC cells assessed as viral inhibition incubated for 7 days with media replacement for every 3 days by ELISA. It counts as functional, organism-based. The following applies: Human immunodeficiency virus 1, PBMC.
Data set [2] deals with Human immunodeficiency virus 1. The data set can be described thus: Antiviral activity against recombinant HIV 1 expressing luciferase and envelope glycoprotein of HIV-1 YU-2 infected in Cf2Th-CCR5 cells assessed as inhibition of viral infection by measuring luciferase activity. The format is functional, organism-based. The following applies: Human immunodeficiency virus 1, Cf2Th-CCR5.

For data set [3], the system named is Human immunodeficiency virus 1. The data set can be described thus: Antiviral activity against HIV 1 infected in HeLa cells transfected with CD4,[…] and LacZ gene assessed as reduction in viral replication measured after 72 hrs by ELISA. Particulars: Human immunodeficiency virus 1, HeLa. It counts as functional, organism-based. On the technique in general: ELISA stands for enzyme-linked immunosorbent assay.

In data set [4] the target is Structural capsid protein (Human immunodeficiency virus 1, UniProt Q76129). The data set can be described thus: Inhibition of HIV 1 capsid CTD dimerization incubated for 5 hrs by TR-FRET assay. (Time-resolved FRET reads energy transfer from a long-lived donor to a nearby acceptor.)
Chain of Structural capsid protein (Q76129 whole entry): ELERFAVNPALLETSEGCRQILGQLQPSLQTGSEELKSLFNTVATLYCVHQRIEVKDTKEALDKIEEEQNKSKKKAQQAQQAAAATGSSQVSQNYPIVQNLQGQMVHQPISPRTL
In data set [5] the test system is Human immunodeficiency virus 1. The data set can be described thus: Antiviral activity against HIV 1 infected in human TZM-bl cells by MTT assay. The following applies: Human immunodeficiency virus 1, TZM-bl. It counts as functional, organism-based. For orientation: Formazan colour is commonly taken as a measure of viable cells.
For data set [6], the system named is TZM. The data set can be described thus: Cytotoxicity against human TZM-bl cells assessed as reduction in cell viability incubated for 1 day by CytoTox-Glo stain based assay. The format is functional. The following applies: 24 h.
Data set [7] deals with Human immunodeficiency virus 1. The data set can be described thus: Antiviral activity against HIV 1 NL4-3 infected in human MT2 cells assessed as inhibition of replication by XTT assay. It counts as functional, organism-based. Particulars: Human immunodeficiency virus 1, NL4-3, MT2.
Data set [8] has as its system Human immunodeficiency virus 1. Kind of data set: Antiviral activity against HIV 1 NL4-3 infected in […] MT2 cells assessed as reduction in luciferase activity incubated for 4 to 5 days. Particulars: Human immunodeficiency virus 1, NL4-3, MT2. The format is functional, organism-based.
For data set [9], the system named is Human immunodeficiency virus 1. The data set can be described thus: Antiviral activity against HIV 1 infected in […] MT4 cells. The following applies: Human immunodeficiency virus 1, MT4. It counts as functional, organism-based.
Data set [10] relates to Human immunodeficiency virus 1. Kind of data set: Antiviral activity against HIV 1 assessed as log 10 reduction in viral load. It counts as functional.
The subject of data set [11] is MT4. The data set can be described thus: Cytotoxicity against […] MT4 cells. The format is functional. Particulars: Homo sapiens.
Data set [12] relates to Human immunodeficiency virus 1. Kind of data set: Antiviral activity against HIV 1 NL4-3. It counts as functional, organism-based. The following applies: Human immunodeficiency virus 1, NL4-3.
The subject of data set [13] is Human immunodeficiency virus 2. Kind of data set: Antiviral activity against HIV 2. The format is functional, organism-based.
For data set [14], the system named is Human immunodeficiency virus 1. Kind of data set: Antiviral activity against HIV 1. It counts as functional, organism-based.
Data set [15] can be described thus: Metabolic stability in C57Bl/6 mouse liver microsomes assessed as half life by LC-MS/MS analysis. The format is ADME, Microsome.
Data set [16] has as its system Human immunodeficiency virus 1. The data set can be described thus: Antiviral activity against HIV 1 NL4-3 infected in human C8166 cells expressing LTR-luciferase reporter gene assessed as inhibition of viral replication pretreated with virus for 1.5 hrs followed by compound addition and measured after 3 days. It counts as functional, organism-based. Particulars: Human immunodeficiency virus 1, NL4-3, C8166.

Data set [17] is described as follows: Modulation of capsid disassembly in HIV 1 NL4-3 infected in human C8166 cells expressing LTR-luciferase reporter gene assessed as inhibition of viral protein disassembly. It counts as functional, cell-based. Particulars: Human immunodeficiency virus 1, NL4-3, C8166.
In data set [18] the test system is Human immunodeficiency virus 1. The data set can be described thus: Antiviral activity against HIV 1 infected in human SUP-T1 cells assessed as inhibition of viral replication by measuring luciferase activity after 72 hrs by steady glo reagent based luminescence assay. The format is functional, organism-based. The following applies: Human immunodeficiency virus 1, SUP-T1, 72 h.

For data set [19], the system named is Human immunodeficiency virus 1. Kind of data set: Antiviral activity against HIV 1 in human C8166 cells expressing LTR-luciferase reporter gene assessed as inhibition of viral replication incubated for 72 hrs by multiple-cycle viral replication assay. It counts as functional, organism-based. The following applies: Human immunodeficiency virus 1, C8166, 72 h.

We go through twelve compounds from ChEMBL document CHEMBL5096168, “An insight on medicinal aspects of novel HIV-1 capsid protein inhibitors” (Eur J Med Chem, 2021).

Where only a bound is given, the exact number is not on record here.

A word on the IC50: it is the concentration needed to halve the response being measured. Consider `CCCCC[C@](C)(NC(=O)[C@H](CC(C)C)NC(=O)[C@H](CC(C)C)NC(=O)[C@H](CC(=O)O)NC(=O)[C@](C)(CCCCC)NC(=O)[C@H](Cc1ccccc1)NC(=O)[C@@H](NC(=O)[C@@H](N)[C@@H](C)CC)[C@@H](C)O)C(=O)N[C@@H](Cc1ccc(O)cc1)C(=O)N[C@@H](Cc1ccc(O)cc1)C(=O)NCC(=O)N1CCC[C@H]1C(=O)O`, for which the half-inhibitory concentration (IC50) in data set [1] turned out to be 4000 nM. As for `O=C(O)c1ccc(-c2nc(-c3ccc4oc5ccc(-c6nc(-c7ccc(C(=O)O)cc7)[nH]c6-c6ccccc6)cc5c4c3)c(-c3ccccc3)[nH]2)cc1`, the IC50 in data set [2] was found to be 33300 nM. As a reminder, the EC50 is the concentration giving half of the maximal effect. `O=c1c2ccccc2[se]n1-c1ccccc1` [EBSELEN]: the EC50 in data set [3] stood at 4250 nM. The compound further yielded a half-inhibitory concentration (IC50) in [4] of 46.7 nM.

In general, CC50 refers to the concentration that lowers cell viability or growth by half. With `COc1ccc(N(C)C(=O)[C@H](Cc2cc(F)cc(F)c2)NC(=O)c2cccc(-c3cn(-c4ccc([N+](=O)[O-])cc4)nn3)c2)cc1`, the concentration for a half-maximal effect (EC50) in [5] was determined as 2130 nM. Further, in [6], the 50% cytotoxic concentration (CC50) is over 35500 nM. For the compound `Cc1[nH]c2ccccc2c1CC(=O)N[C@@H](Cc1ccccc1)C(=O)N(C)c1ccccc1`, the EC50 in [7] came out at 570 nM.

With `Cn1nc(NS(C)(=O)=O)c2cccc(-n3c([C@H](Cc4cc(F)cc(F)c4)NC(=O)Cn4nc(C(F)F)c5c4C(F)(F)[C@H]4C[C@@H]54)nc4cc(-c5ncccn5)ccc4c3=O)c21`, the EC50 in [8] is 0.025 nM. Consider `CC(C)(C#Cc1ccc(-c2ccc(Cl)c3c(NS(C)(=O)=O)nn(CC(F)(F)F)c23)c([C@H](Cc2cc(F)cc(F)c2)NC(=O)Cn2nc(C(F)(F)F)c3c2C(F)(F)[C@@H]2C[C@H]32)n1)S(C)(=O)=O` [LENACAPAVIR], for which the response in [9] was half-maximal at 0.1 nM (EC50). For the same compound, in data set [10], the “log(activity)” value is recorded as 0.5. In data set [11], this compound had a CC50 of 27000 nM. For the compound `O=C(O)c1ccc(-c2nc(-c3ccccc3)c(-c3ccccc3)[nH]2)cc1`, the half-maximal inhibitory concentration (IC50) in [2] stood at 22500 nM.

Consider `O=C(O)c1ccc(-c2ccc3c(c2)nc(-c2c[nH]nc2-c2cccc(Cl)c2)n3CCCn2ccnc2)cc1`, for which the concentration for half-maximal inhibition (IC50) in data set [12] came out at 57000 nM.

By half-life is commonly meant the time in which the quantity being followed falls by half. As to `CC(C)(C#Cc1ccc(-c2ccc(Cl)c3c(NS(=O)(=O)C4CC4)nn(CC(F)(F)F)c23)c([C@H](Cc2cc(F)cc(F)c2)NC(=O)Cn2nc(C(F)(F)F)c3c2C(F)(F)[C@@H]2C[C@H]32)n1)S(C)(=O)=O`, the EC50 in [13] and in data set [14] was 0.14 nM throughout. In data set [15], the half-life is 7.2 h.

As to `CCc1cc(-c2ccc(C(F)(F)F)o2)n(-c2ccc3c(c2)nc(-c2cc(C(=O)N4CCCC4)ccc2O)n3Cc2ccc(=O)[nH]c2)n1`, the EC50 in data set [16] turned out to be 62 nM. Besides, the IC50 in data set [17] is 61 nM. Turning to `O=C1NC(c2cccnc2)c2c(-c3ccccc3)n[nH]c21` (stereo not given), the EC50 stood at 1800 nM in [18] and 1400 nM in data set [19].
